The values that follow come from ChEMBL document CHEMBL1201862, “PubChem BioAssay data set” (2004).

Among the test systems are SNB-19; DMS-273; MCF7; U-251; RXF 393; SNB-78; LOX IMVI; NCI-H226; CAKI-1; SK-MEL-5; NCI/ADR-RES; OVCAR-4; SF-539; M14; Hs-578T; KM12; MDA-MB-231; ACHN; A549; TK-10.
What all share (test): growth of human tumour cells (NCI), 48 h

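Grown in 96-well plates, cells were treated for 48 hours with each compound at five concentrations. Insufficient inhibition: endpoint recorded as highest concentration tested. The concentration for 50% growth inhibition is given as GI50.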 The source made the active and inactive calls. Cut-off read from the data, not from the text of the source: active = GI50 up to about 1.1 µM and inactive = higher.

In the case of `CC(=O)OC1CC2(O)C(CCC3(C)C(c4ccc(=O)oc4)CCC32O)C2(C)CCC(O)C=C12` (stereo not given), the GI50 was 0.0466 µM (active) with SNB-19; 0.005 µM (active) with DMS-273; 0.0375 µM (active) in the experiment on MCF7; 0.0169 µM (active) in the experiment with U-251; 0.0375 µM (active) with RXF 393; 0.00989 µM (active) in the experiment on SNB-78. Further, the GI50 in the experiment with LOX IMVI is 0.0191 µM (active); in the experiment with NCI-H226, 0.048 µM (active); in the experiment with CAKI-1 it was 0.0375 µM (active); with SK-MEL-5, 0.00439 µM (active); with NCI/ADR-RES, 0.0125 µM (active); with OVCAR-4, 0.0206 µM (active). Further, in the experiment with SF-539, the GI50 was 0.00775 µM (active).

`CC(=O)OC1CC[C@@]2(C)C(=CC[C@@H]3[C@@H]2CC[C@]2(C)Nc4nn(S(C)(=O)=O)cc4C[C@@H]32)C1` (stereo not given in full): the GI50 was 79.4 µM (inactive) in the experiment on SNB-19; 16.6 µM (inactive) with MCF7; 20.7 µM (inactive) in the experiment with M14; 36.1 µM (inactive) in the experiment on U-251; 18.6 µM (inactive) in the experiment with RXF 393; 67 µM (inactive) with Hs-578T. Further, the GI50 with NCI-H226 is 27.7 µM (inactive); in the experiment on KM12, 31.8 µM (inactive); with CAKI-1, 40.1 µM (inactive); with SK-MEL-5, 15.2 µM (inactive); with NCI/ADR-RES, 29.9 µM (inactive); in the experiment on MDA-MB-231 it was 31 µM (inactive).

As to `Cc1cc(O)nc(NN2C(Cl)C(=O)C2c2c(O)ccc3ccccc23)n1` (stereo not given), the GI50 was 20.7 µM (inactive) in the experiment on SNB-19; 20.7 µM (inactive) with ACHN; 16.4 µM (inactive) with DMS-273; 15.2 µM (inactive) in the experiment on M14; 21.9 µM (inactive) with U-251; 13.2 µM (inactive) with RXF 393. The GI50 in the experiment on SNB-78 was 20.1 µM (inactive); with A549 it was 36.2 µM (inactive); in the experiment on LOX IMVI it was 13.7 µM (inactive); in the experiment with NCI-H226, 13 µM (inactive); in the experiment on TK-10, 37.2 µM (inactive); in the experiment on KM12, 23 µM (inactive). Besides, the values for the GI50 in the experiment on SK-MEL-5, in the experiment on OVCAR-4 and in the experiment on SF-539 were 15.2 µM (inactive), 17.3 µM (inactive) and 21.9 µM (inactive), respectively.

For the compound `O=C(O)C12CC3CC(C1)C2C=C3P(=O)(O)O` (stereo not given), the GI50 with ACHN, in the experiment on DMS-273, in the experiment on M14, in the experiment with U-251, with RXF 393 and in the experiment on LOX IMVI was > 100 µM (inactive) throughout. In addition, the GI50 with NCI-H226, in the experiment on TK-10, in the experiment with KM12, in the experiment with CAKI-1 and in the experiment with OVCAR-4 was > 100 µM (inactive) each time.

For the compound `CC1(C)CC2(CC(C)(C)N1O)NC(=O)OC2=O`, the GI50 in the experiment on SNB-19, in the experiment with DMS-273, in the experiment with MCF7, in the experiment with U-251, with RXF 393 and in the experiment with SNB-78 was > 100 µM (inactive) in each case. In addition, the GI50 in the experiment on A549, in the experiment with LOX IMVI, with NCI-H226, with KM12, in the experiment on CAKI-1 and in the experiment on SK-MEL-5 was > 100 µM (inactive) each time. Further, the GI50 in the experiment with NCI/ADR-RES, in the experiment with OVCAR-4 and in the experiment on SF-539 was > 100 µM (inactive) in each case.

With `CCOC(=O)C1=NN(c2ccccc2)C2=CC(C)=NN(C)C(=S)N21`, the GI50 in the experiment with SNB-19, in the experiment on ACHN, in the experiment on MCF7, with M14, in the experiment on U-251 and in the experiment on RXF 393 was > 100 µM (inactive) throughout. Further, the GI50 with Hs-578T, in the experiment on A549, in the experiment with LOX IMVI, in the experiment on TK-10, with KM12 and in the experiment on CAKI-1 was > 100 µM (inactive) in each case. Also, the GI50 in the experiment on SK-MEL-5, in the experiment with NCI/ADR-RES, with OVCAR-4, in the experiment on SF-539 and in the experiment on MDA-MB-231 was > 100 µM (inactive) in each case.

`CN1CN(C(=O)N2CN(C)C(=O)N(C)C2)CN(C)C1=O`: the GI50 with SNB-19, in the experiment with ACHN, with M14, in the experiment with SNB-78, with A549 and in the experiment with LOX IMVI was > 100 µM (inactive) throughout. Also, the GI50 in the experiment on NCI-H226, with KM12, with CAKI-1 and in the experiment with SF-539 was > 100 µM (inactive) each time.

In the case of `CCCCCCCCCC[C@@H](O)[C@@H]1CC[C@@H]([C@@H]2CC[C@@H]([C@@H](O)CCCCCCCCCCC(O)CC3=CC(C)OC3=O)O2)O1` (stereo not given in full), the GI50 was 0.931 µM (active) in the experiment with ACHN; 1.36 µM (inactive) in the experiment with MCF7; > 10 µM (inactive) in the experiment on M14; 2.69 µM (inactive) with RXF 393; > 10 µM (inactive) with Hs-578T; 2.53 µM (inactive) in the experiment with A549. For the same compound, the GI50 in the experiment on LOX IMVI is 1.05 µM (active); with NCI-H226, 0.173 µM (active); in the experiment on TK-10, > 10 µM (inactive); in the experiment with KM12, 3.53 µM (inactive); with SK-MEL-5 it was 0.333 µM (active); in the experiment with NCI/ADR-RES it was 0.729 µM (active). The GI50 with OVCAR-4 is 1.38 µM (inactive); in the experiment with SF-539, > 10 µM (inactive); with MDA-MB-231 it was 2.32 µM (inactive).

As for `CC(=O)NNc1nc(C)c(C(=O)NNC(=O)C(=O)Nc2c(C)cccc2C(C)(C)C)s1`, the GI50 with SNB-19 was > 100 µM (inactive); in the experiment with ACHN, 59.4 µM (inactive); in the experiment with DMS-273 it was 47.1 µM (inactive); with M14, > 100 µM (inactive); with U-251, 58.7 µM (inactive); with RXF 393, > 100 µM (inactive). Further, the GI50 in the experiment on SNB-78 is > 100 µM (inactive); with A549, 46.9 µM (inactive); with LOX IMVI, 57.8 µM (inactive); in the experiment with NCI-H226, > 100 µM (inactive); in the experiment on TK-10, > 100 µM (inactive); in the experiment with KM12, > 100 µM (inactive). In addition, the GI50 in the experiment on CAKI-1 was 49.5 µM (inactive); with SK-MEL-5, > 100 µM (inactive); in the experiment on OVCAR-4 it was 40.3 µM (inactive); in the experiment with SF-539, > 100 µM (inactive).

On to `CCP(=S)(CC)CCl`, for which the GI50 with SNB-19, with ACHN, with MCF7, in the experiment on M14, with U-251 and in the experiment on Hs-578T was > 100 µM (inactive) each time. The GI50 in the experiment with A549, in the experiment on LOX IMVI, in the experiment on NCI-H226, in the experiment with TK-10, with CAKI-1 and in the experiment with SK-MEL-5 was > 100 µM (inactive) each time. Besides, the GI50 in the experiment on NCI/ADR-RES, in the experiment with OVCAR-4 and in the experiment on MDA-MB-231 was > 100 µM (inactive) each time.

For `CCCCCOc1ccc(/C=N\c2ccc(-c3ccc(/N=C\c4ccc(OCCCCC)cc4)c(OC)c3)cc2OC)cc1`, the GI50 with SNB-19 was > 100 µM (inactive); in the experiment with DMS-273, > 100 µM (inactive); in the experiment on MCF7, > 100 µM (inactive); with U-251 it was > 100 µM (inactive); with RXF 393 it was > 100 µM (inactive); in the experiment on SNB-78, > 84.9 µM (inactive). For the same compound, the GI50 in the experiment with A549, in the experiment on LOX IMVI, in the experiment on NCI-H226, with KM12, in the experiment with SK-MEL-5 and with NCI/ADR-RES was > 100 µM (inactive) each time. Moreover, the GI50 was > 31.6 µM (inactive) in the experiment with OVCAR-4 and > 100 µM (inactive) in the experiment with SF-539.

For `CC(C(=O)OCc1ccccc1)N(Cc1ccccc1)Cc1ccccc1` (stereo not given), the GI50 in the experiment with SNB-19 is > 100 µM (inactive); in the experiment with ACHN, 87.3 µM (inactive); in the experiment on DMS-273 it was 57.9 µM (inactive); in the experiment on M14, > 100 µM (inactive); with U-251, 98.4 µM (inactive); with RXF 393 it was 23.1 µM (inactive). The GI50 in the experiment on SNB-78 was > 100 µM (inactive); in the experiment on A549, > 100 µM (inactive); in the experiment with TK-10 it was > 100 µM (inactive); in the experiment on KM12, 58.7 µM (inactive); in the experiment with CAKI-1 it was > 100 µM (inactive); with SK-MEL-5, 43.1 µM (inactive). Besides, the GI50 in the experiment with OVCAR-4 and with SF-539 was > 100 µM (inactive) in each case.

In the case of `CN(C)CCNC(=O)c1cccc2nc(-c3ccccc3)oc12`, the GI50 with SNB-19 is 19.7 µM (inactive); with MCF7, 14.7 µM (inactive); in the experiment on U-251, 46.9 µM (inactive); in the experiment on RXF 393, 32.2 µM (inactive); in the experiment on SNB-78 it was > 72.6 µM (inactive); in the experiment on A549, 42.6 µM (inactive). The GI50 is 26.5 µM (inactive) in the experiment with LOX IMVI; 29.1 µM (inactive) with NCI-H226; 53.5 µM (inactive) with KM12; 22.3 µM (inactive) in the experiment with SK-MEL-5; 42.9 µM (inactive) in the experiment with NCI/ADR-RES; 26.5 µM (inactive) with OVCAR-4. Also, in the experiment with SF-539, the GI50 was 49.9 µM (inactive).
